The subject of assay [1] is SOD1-G93A transgenic mice. The experiment in a line: In vivo analysis: BBB Locomotor Rating Scale of the hind limbs. The conditions noted are these: oral 500 mg/kg-body weight once daily from day 60. Here is the method: SOD1-G93A transgenic mice (60-day-old) were treated with butylidenephthalide by oral administration, with a dosage of 500 mg/ kg-body weight once daily. After the mice were treated for 30 days, the hind limbs of the mice were examined by BBB scale (Basso, Beattie, and Bresnahan (BBB) Locomotor Rating Scale). The BBB scale of the hind limbs of normal mice was 21 points, while the BBB scale of disease-progressed SOD1-G93A transgenic mice decreased from 21 to 0 points, wherein the lower scale represents a more severe action disorder in the mice. BBB scale is used to record the drug efficiency.

The test system of assay [2] is SOD1-G93A transgenic mice. The assay can be described thus: In vivo analysis: survival of SOD1-G93A transgenic mice. As to conditions: 60-day-old SOD1-G93A transgenic mice, oral administration, 500 mg/kg-body weight once daily; for Survival days: n = 8, untreated control 127 ± 6.11, 500 mg/kg. The source says:
It has been known that about 20% of amyotrophic lateral sclerosis patients were associated with mutations in the gene that encodes Cu/Zn superoxide dismutase enzyme (SOD1), and G93A was the major mutation site. […] A SOD1-G93A transgenic mouse will show the symptoms of amyotrophic lateral sclerosis within about 90±5 days postnatal and will die within about 125±5 days postnatal.
This example used the above SOD1-G93A transgenic mice as the object of study to perform in vivo analysis. SOD1-G93A transgenic mice (60-day-old) were treated with butylidenephthalide (purchased from ECHO Chemical) by oral administration, with a dosage of 500 mg/ kg-body weight once daily, wherein the unit "mg/kg-body weight" means the dosage required per kg-body weight. […]

Assay [3] deals with LC3-II. The experiment in a line: Cellular experiment: Western blotting of LC3-II in NSCs after H2O2 stimulation of autophagy. It counts as cell-based, mouse. The conditions noted are these: 10 µg/mL for 12 hours, then H2O2 (2500 µM/mL) for 12 hours. The procedure: Cellular experiment was performed by using NSCs (neural stem cells) which can differentiate into mouse motor neurons to imitate mouse motor neurons.
NSCs were incubated in a culture dish (10 cm in diameter). The cells were washed with PBS when grown to a density of 60% confluence, and treated with different concentrations of butylidenephthalide for 12 hours. The cells were then treated with H2O2 (2500 µM/mL) for 12 hours to stimulate the autophagy of cells. Then, the cells were collected and the proteins were extracted, and the protein expression level of LC3-II in NSC was analyzed by SDS-PAGE and Western blotting.

Assay [4] deals with SOD1-G93A transgenic mice. The assay can be described thus: Histochemical staining (hematoxylin and eosin): count of spinal motor neurons. It counts as in vivo. The conditions noted are these: spinal cord, mice sacrificed in extremis. Here is the method:
SOD1-G93A transgenic mice (60-day-old) were treated with butylidenephthalide by oral administration, with a dosage of 500 mg/ kg-body weight once daily. The SOD1-G93A transgenic mice in the experimental group were sacrificed in extremis, and the spinal cord was collected to perform hematoxylin and eosin stain. The number of motor neurons in the spinal cord was observed and counted by using a microscope, and the data was compared with that of the untreated control group.

In assay [5] the test system is LC3-II. The experiment in a line: Western blotting of autophagy biomarker in spinal cord. The class given is in vivo, mice. The conditions noted are these: cervical, thoracic and lumbar spinal cord, compared with untreated control; oral 500 mg/kg-body weight once daily; β-actin internal control. The procedure: SOD1-G93A transgenic mice (60-day-old) were treated with butylidenephthalide by oral administration, with a dosage of 500 mg/ kg-body weight once daily. It has been indicated by research that SOD1-G93A transgenic mice lost its spinal motor neurons because of the significant increase of autophagy during the last phase of amyotrophic lateral sclerosis (which can be seen in In vivo optical imaging of motor neuron autophagy in a mouse model of amyotrophic lateral sclerosis. Autophagy 7:9, 1-8; September 2011, which is entirely incorporated hereinto by reference). Therefore, in this example, the SOD1-G93A transgenic mice in experimental group were sacrificed in extremis to collect their spinal cord, and the proteins were extracted from the spinal cord to perform Western blotting and to analyze the protein biomarker of autophagy, LC3-II, which was used to determine whether autophagy occurred in the lumbar spinal motor neurons of the mice, wherein β-actin was used as an internal control.
(In general: In western blotting, separated proteins are transferred to a membrane and probed.)

As for `CCCC=C1OC(=O)c2ccccc21` [butylidenephthalide], the “BBB scale of the hind limbs” value is 16 to 0 points in assay [1] (after 135 days (decreased rapidly)) and 21 to 16 points in assay [1] (from 125 to 135 days (decreased slowly), normal mice 21 points, control fell from 19 to 0 after 110 days). Also, in assay [2], the “life lengthened as compared to the untreated control group” value was “about 22 ± 2 days”. The Survival days result in assay [2] is listed as “about 149 ± 4.39 days”; in assay [2] (listed as n-BP), 149 ± 4.39 days. Further, in the assay with LC3-II [3], the “protein expression level of LC3-II in NSC” value was “decrease the protein expression level of LC3-II”. Further, the “The number of motor neurons” value in assay [4] (oral 500 mg/kg-body weight once daily from day 60, control 3 ± 3.1) came out at 24; in assay [4] (oral 500 mg/kg-body weight once daily from day 60, control 3 ± 3.1, listed as n-BP), 24 ± 4.2. The “protein expression level of LC3-II and pLC3-II” value in the assay with LC3-II [5] is reported as “significantly decreased”.

The record behind these values is patent EP2992879B1, “PHARMACEUTICAL COMPOSITION FOR […] OF MOTOR NEURONS AND USE THEREOF” (China Medical University, priority 2012, dated 2014).
